Experimental data taken from US20240059693A1, “FUSED BICYCLIC PYRAZOLE DERIVATIVES AND METHODS OF USE THEREOF FOR THE TREATMENT OF HERPESVIRUSES” (Merck Sharp & Dohme LLC, priority 2020, published 2024).
Where two headings read alike, the source gives them in different places.

How the values were obtained:
[1] = molecular target: T1, Human cytomegalovirus DNA polymerase (Human cytomegalovirus, UniProt P08546); test: HCMV polymerase assay (AlphaLISA); format: biochemical; details: HCMV DNA polymerase 0.2 nM, 60 minutes at 37° C.; read-out: CMV (IC50)
T1 construct: made in house; host or cells: SF21 insect cells (baculovirus vector)
Experimental: Human cytomegalovirus and varicella zoster virus DNA polymerases were expressed via baculovirus vector in SF21 cells and purified. Heterodimeric nucleic acid substrate used in the herpesvirus polymerase reactions was generated by annealing a 59-mer template to a 17-mer digoxigenin-labeled primer. Polymerase (HCMV final concentration of 0.2 nM; VZV final concentration of 0.4 nM) was combined with an inhibitor compound or DMSO in assay buffer (10 mM HEPES, pH 7.5, 25 mM KCl, 25 mM NaCl, 5 mM MgCl2, 5% glycerol, 0.67 mg/ml bovine serum albuminutes, and 1 mM tris(2-carboxyethyl)phosphine), and this mixture was pre-incubated for 30 minutes at room temperature in 384-well microtiter plates. The polymerization reaction was initiated by the addition of template/primer substrate (final concentration: 1.6 nM), and dNTPs (final concentration: 24 nM dCTP, 24 nMdGTP, 16 nM dATP, 16 nM dTTP, and 0.8 nM biotin-dUTP). After 60 minutes incubation at 37° C., reactions were terminated with quench buffer (25 mM HEPES pH 7.5, 100 mM NaCl, 0.25% Tween-20, 12 mM EDTA, and 1 mg/ml bovine serum albumin). Incorporation of biotinylated UTP was detected with 2.5-ug/ml anti-DIG AlphaLISA acceptor beads and 5-10 ug/ml streptavidin AlphaLISA donor beads (Perkin Elmer). Compound effects were normalized to the window defined by the controls (DMSO only and pre-quenched wells) and were fit using a 4-parameter algorithm to report an IC50.

HCMV Strain AD169 = test: Viral qPCR assay, HCMV in MRC-5 cells; format: cell-based, Human cytomegalovirus; details: read-out: CMV MRC5 Cell (EC50)
Experimental: (§1) MRCS cells, Vero cells, and MeWo cells were obtained from ATCC and were maintained at 37° C./5% CO2/90% relative humidity in Minimal Essential Medium with 10% fetal bovine serum, […] L-glutamine, 100 units/ml penicillin and 100 ug/ml streptomycin. Assay plates were prepared by dispensing compounds dissolved in DMSO into wells of 384 well collagen-coated plates using an ECHO acoustic dispenser. Each compound was tested in a 10-point, serial 3-fold dilution. Controls included uninfected cells and infected cells treated only with DMSO. Assays were initiated by mixing selected cells, in suspension, with virus, and dispensing 50 μl/well infected cells to pre-plated compounds. Plates were incubated at 37° C./5% CO2/90% relative humidity for ˜72 hrs to permit genomic replication, and infected cells were lysed by the addition of an equal volume of lysis buffer (10 mM Tris-HCl, pH8, 50 mM KCl, 2 mM MgCl2, 0.45% NP-40, 0.45% Tween-20, and 100 μg/ml proteinase K). An aliquot of the lysate was transferred to a 384-well PCR plate and incubated at 56° C. for 1 hour and then at 95° C. for 10 min. Levels of a viral gene and of the cellular control, PPIA (Thermo Fisher Assay ID=Hs04194521_s1), were measured in separate 10 μL qPCR assays using TaqMan® Gene Expression Master Mix (Applied Biosystems), and an 7900HT Fast Real-Time PCR System with 384-Well Block Module. 7-point, serial 10-fold dilutions of a plasmid standard were run on each plate to generate a standard curve, and genome copies numbers were calculated by plotting experimental Ct onto linear regression of the standard curve. Viral genome copy numbers were normalized by cellular control copy number, and compound effects were normalized to the window defined by the controls. Calculated % effects were fit using a 4-parameter algorithm, and EC50 was reported.
as §1, with “gene” for “gene and of the cellular control, PPIA (Thermo Fisher Assay ID=Hs04194521_s1),”, “in” for “in separate”, “Compound effects on viral” for “Viral”, “number” for “numbers were normalized by cellular control copy number, and compound effects”
HCMV: Strain AD169 Street was assayed in MRC-5 cells and was used at 0.05-0.1 pfu/cell. The assays were performed in either growth media or in the same media with 50% fetal bovine serum. Primer-probe set was Thermo Fisher Assay ID=AIFATFK.

[2] = Human betaherpesvirus 5, AD169, MRC5, 72 h

T1 sequence (P08546 whole entry): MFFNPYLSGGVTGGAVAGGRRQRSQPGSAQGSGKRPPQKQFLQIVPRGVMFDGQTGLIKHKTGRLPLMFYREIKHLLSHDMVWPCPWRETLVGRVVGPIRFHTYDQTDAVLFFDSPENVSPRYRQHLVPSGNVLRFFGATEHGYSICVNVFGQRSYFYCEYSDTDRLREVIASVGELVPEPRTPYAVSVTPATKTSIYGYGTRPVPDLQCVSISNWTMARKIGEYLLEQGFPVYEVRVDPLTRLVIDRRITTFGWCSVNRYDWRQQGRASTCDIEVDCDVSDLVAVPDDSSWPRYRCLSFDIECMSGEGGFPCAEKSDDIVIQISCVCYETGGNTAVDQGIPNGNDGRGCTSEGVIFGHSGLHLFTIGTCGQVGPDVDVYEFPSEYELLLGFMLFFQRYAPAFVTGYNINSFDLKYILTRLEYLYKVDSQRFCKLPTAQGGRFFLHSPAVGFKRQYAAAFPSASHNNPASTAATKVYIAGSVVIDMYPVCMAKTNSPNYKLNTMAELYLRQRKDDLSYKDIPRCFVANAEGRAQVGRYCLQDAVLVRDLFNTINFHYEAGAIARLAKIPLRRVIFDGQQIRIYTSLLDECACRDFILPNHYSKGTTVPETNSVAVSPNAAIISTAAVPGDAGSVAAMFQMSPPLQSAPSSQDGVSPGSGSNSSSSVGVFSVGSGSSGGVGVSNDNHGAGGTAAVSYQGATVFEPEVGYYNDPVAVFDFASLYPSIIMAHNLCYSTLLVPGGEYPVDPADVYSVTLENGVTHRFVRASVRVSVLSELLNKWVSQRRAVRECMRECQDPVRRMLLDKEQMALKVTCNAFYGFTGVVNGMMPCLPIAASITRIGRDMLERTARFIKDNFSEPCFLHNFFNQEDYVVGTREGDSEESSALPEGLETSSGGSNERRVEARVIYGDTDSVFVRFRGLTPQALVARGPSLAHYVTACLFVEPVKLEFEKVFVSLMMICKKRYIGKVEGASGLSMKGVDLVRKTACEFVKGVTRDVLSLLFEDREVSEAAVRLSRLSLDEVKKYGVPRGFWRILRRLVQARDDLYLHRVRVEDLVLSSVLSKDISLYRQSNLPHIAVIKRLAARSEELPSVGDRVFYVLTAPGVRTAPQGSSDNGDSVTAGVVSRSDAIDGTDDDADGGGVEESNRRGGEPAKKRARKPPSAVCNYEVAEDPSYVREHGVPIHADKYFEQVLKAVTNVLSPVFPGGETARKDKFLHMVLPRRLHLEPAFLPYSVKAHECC

CC([C@@H]1CCC(=O)N1)N1Cc2c(C(=O)NCc3ccc(Cl)cc3)nn(-c3nccs3)c2C1 (single isomer, unassigned) [Compound 6]
IC50 [1]: 0.958 µM
EC50 (HCMV Strain AD169; MRC5 cells, ~72 hrs): 5.87 µM

O=C1CC[C@@H](CN2Cc3c(C(=O)NCc4ccc(Cl)cc4)nn(C4CCC(F)(F)C4)c3C2)N1 (single isomer, unassigned) [Compound 54]
IC50 [1]: 0.146 µM
EC50 (HCMV Strain AD169; MRC5 cells, ~72 hrs): 1.58 µM

CC(C1CC(F)(F)C(=O)N1)N1Cc2c(C(=O)NCc3ccc(Cl)cc3)nn(C)c2C1 (single isomer, unassigned) [Compound 83]
IC50 [1]: 13.3 µM
EC50 (HCMV Strain AD169; [2]): 99 µM

CCC(C1CCC(=O)N1)N1Cc2c(C(=O)NCc3ccc(Cl)cc3)nn(C)c2C1 (single isomer, unassigned) [Compound 89]
IC50 [1]: 0.8 µM
EC50 (HCMV Strain AD169; [2]): 7.64 µM

CC1c2c(c(C(=O)NCc3ccc(Cl)cc3)nn2C)CN1CC1CCC(=O)N1 (single isomer, unassigned) [Compound 102]
IC50 [1]: 5.77 µM
EC50 (HCMV Strain AD169; MRC5 cells, ~72 hrs): 71.2 µM

CCC1c2c(c(C(=O)NCc3ccc(Cl)cc3)nn2C)CN1CC1CCC(=O)N1 (single isomer, unassigned) [Compound 104]
IC50 [1]: 1.81 µM
EC50 (HCMV Strain AD169; MRC5 cells, ~72 hrs): 38.7 µM

CC1c2c(c(C(=O)NCc3ccc(Cl)cc3)nn2C)CN1CC1CCC(=O)N1 (single isomer, unassigned) [Compound 108]
IC50 [1]: 0.702 µM
EC50 (HCMV Strain AD169; MRC5 cells, ~72 hrs): 1.96 µM

CC(C)[C@H]1c2c(c(C(=O)NCc3ccc(Cl)cc3)nn2C)CN1C(C)C1CCC(=O)N1 (single isomer, unassigned) [Compound 115]
IC50 [1]: 0.566 µM
EC50 (HCMV Strain AD169; [2]): 4.24 µM

CC(C)[C@H]1c2c(c(C(=O)NCc3ccc(Cl)cc3)nn2C)CN1C(C)C1CCC(=O)N1 (single isomer, unassigned) [Compound 116]
IC50 [1]: 10.9 µM
EC50 (HCMV Strain AD169; MRC5 cells, ~72 hrs): 99 µM

CC(C)[C@H]1c2c(c(C(=O)NCc3ccc(Cl)cc3)nn2C)CN1C(C)C1CCC(=O)N1 (single isomer, unassigned) [Compound 117]
IC50 [1]: 0.68 µM
EC50 (HCMV Strain AD169; MRC5 cells, ~72 hrs): 4.64 µM

CC(C)[C@H]1c2c(c(C(=O)NCc3ccc(Cl)cc3)nn2C)CN1C(C)C1CCC(=O)N1 (single isomer, unassigned) [Compound 118]
IC50 [1]: 0.0837 µM
EC50 (HCMV Strain AD169; MRC5 cells, ~72 hrs): 1.6 µM

CC(=O)OCC1c2c(c(C(=O)NCc3ccc(Cl)cc3)nn2C)CN1C[C@H]1CCC(=O)N1 (single isomer, unassigned) [Compound 119]
IC50 [1]: 7.85 µM
EC50 (HCMV Strain AD169; MRC5 cells, ~72 hrs): 99 µM

Cn1nc(C(=O)NCc2ccc(Cl)cc2)c2c1C(CO)N(C[C@H]1CCC(=O)N1)C2 (single isomer, unassigned) [Compound 121]
IC50 [1]: 13.3 µM
EC50 (HCMV Strain AD169; [2]): 99 µM

O=C1CC[C@H](CN2Cc3c(C(=O)NCc4ccc(Cl)cc4)nn(-c4ncc(CO)s4)c3C2)N1 [Compound 9]
IC50 [1]: 0.0192 µM
EC50 (HCMV Strain AD169; [2]): 0.644 µM

O=C1CC[C@H](CN2Cc3c(C(=O)NCc4ccc(Cl)cc4)nn(-c4ncc[nH]4)c3C2)N1 [Compound 14]
IC50 [1]: 0.0258 µM
EC50 (HCMV Strain AD169; [2]): 1.03 µM

O=C1CC[C@H](CN2Cc3c(C(=O)NCc4ccc(Cl)cc4)nn(-c4nc(-c5ccccc5)cs4)c3C2)N1 [Compound 15]
IC50 [1]: 0.031 µM
EC50 (HCMV Strain AD169; [2]): 1.1 µM

O=C1CC[C@H](CN2Cc3c(C(=O)NCc4ccc(Cl)cc4)nn(-c4ncc(O)cn4)c3C2)N1 [Compound 17]
IC50 [1]: 0.0361 µM
EC50 (HCMV Strain AD169; [2]): 51.4 µM

CC(C)(C)c1csc(-n2nc(C(=O)NCc3ccc(Cl)cc3)c3c2CN(C[C@H]2CCC(=O)N2)C3)n1 [Compound 21]
IC50 [1]: 0.157 µM
EC50 (HCMV Strain AD169; [2]): 2.67 µM

Cn1nccc1-n1nc(C(=O)NCc2ccc(Cl)cc2)c2c1CN(C[C@H]1CCC(=O)N1)C2 [Compound 24]
IC50 [1]: 0.148 µM
EC50 (HCMV Strain AD169; [2]): 0.997 µM

O=C1CC[C@H](CN2Cc3c(C(=O)NCc4ccc(Cl)cc4)nn([C@@H]4CCCOC4)c3C2)N1 [Compound 49]
IC50 [1]: 0.0875 µM
EC50 (HCMV Strain AD169; [2]): 3.54 µM

O=C1CC[C@H](CN2Cc3c(C(=O)NCc4ccc(Cl)cc4)nn(C4CCOCC4)c3C2)N1 [Compound 50]
IC50 [1]: 0.125 µM
EC50 (HCMV Strain AD169; [2]): 1.49 µM

O=C1CC[C@H](CN2Cc3c(C(=O)NCc4ccc(Cl)cc4)nn([C@H]4CCCOC4)c3C2)N1 [Compound 51]
IC50 [1]: 0.129 µM
EC50 (HCMV Strain AD169; [2]): 1.79 µM

O=C1CC[C@@H](CN2Cc3c(C(=O)NCc4ccc(Cl)cc4)nn([C@H]4CCCOC4)c3C2)N1 [Compound 52]
IC50 [1]: 0.15 µM
EC50 (HCMV Strain AD169; [2]): 0.885 µM

O=C1CC[C@@H](CN2Cc3c(C(=O)NCc4ccc(Cl)cc4)nn(C4CCOCC4)c3C2)N1 [Compound 53]
IC50 [1]: 0.124 µM
EC50 (HCMV Strain AD169; [2]): 2.09 µM

CC(C)C(O)Cn1nc(C(=O)NCc2ccc(Cl)cc2)c2c1CN(C[C@H]1CCC(=O)N1)C2 (stereo partly shown) [Compound 56]
IC50 [1]: 0.129 µM
EC50 (HCMV Strain AD169; [2]): 1.79 µM

Cn1nc(C(=O)NCc2ccc(C#N)c(F)c2)c2c1CN(C[C@H]1CCC(=O)N1)C2 [Compound 62]
IC50 [1]: 0.0625 µM

O=C(NCc1ccc(Cl)cc1)c1nn(CCNC(=O)C2CCC2)c2c1CN(Cc1c(F)cncc1F)C2 [Compound 64]
IC50 [1]: 0.064 µM

CN(CCn1nc(C(=O)NCc2ccc(Cl)cc2)c2c1CN(Cc1ccncc1Cl)C2)C(=O)C1CCC1 [Compound 65]
IC50 [1]: 0.0645 µM

O=C(NCc1ccc(Cl)cc1)c1nn(CCNC(=O)C2CCC2)c2c1CN(Cc1ccnc(F)c1)C2 [Compound 67]
IC50 [1]: 0.119 µM

O=C(NCc1ccc(Cl)cc1)c1nn(CCNC(=O)C2CCC2)c2c1CN(Cc1ccncc1Cl)C2 [Compound 70]
IC50 [1]: 1.71 µM

CC([C@@H]1CCC(=O)N1)N1Cc2c(C(=O)NCc3ccc(Cl)cc3)nn(C(F)F)c2C1 (stereo partly shown) [Compound 72]
IC50 [1]: 0.976 µM

CC(C1CC(F)C(=O)N1)N1Cc2c(C(=O)NCc3ccc(Cl)cc3)nn(C)c2C1 (stereo not shown) [Compound 74]
IC50 [1]: 0.815 µM
EC50 (HCMV Strain AD169; MRC5 cells, ~72 hrs): 28.1 µM

CC(C1CC(F)C(=O)N1)N1Cc2c(C(=O)NCc3ccc(Cl)cc3)nn(C)c2C1 (stereo not shown) [Compound 75]
IC50 [1]: 0.0709 µM
EC50 (HCMV Strain AD169; MRC5 cells, ~72 hrs): 2.02 µM

Cn1nc(C(=O)NCc2ccc(Cl)cc2)c2c1CN(C[C@H]1CC(F)(F)C(=O)N1)C2 [Compound 81]
IC50 [1]: 0.557 µM
EC50 (HCMV Strain AD169; [2]): 1.28 µM

CC(C1CC(F)(F)C(=O)N1)N1Cc2c(C(=O)NCc3ccc(Cl)cc3)nn(C)c2C1 (stereo not shown) [Compound 84]
IC50 [1]: 13.3 µM
EC50 (HCMV Strain AD169; MRC5 cells, ~72 hrs): 40 µM

CC(C1CC(F)(F)C(=O)N1)N1Cc2c(C(=O)NCc3ccc(Cl)cc3)nn(C)c2C1 (stereo not shown) [Compound 85]
IC50 [1]: 1.05 µM
EC50 (HCMV Strain AD169; MRC5 cells, ~72 hrs): 3.37 µM

Cc1nnc2n1C(CN1Cc3c(C(=O)NCc4ccc(Cl)cc4)nn(C)c3C1)CC2 (stereo not shown) [Compound 97]
IC50 [1]: 0.174 µM
